# Test results from ChEMBL document CHEMBL1149698, “Metallocene-based antimalarials: an exploration into the influence of the ferrocenyl moiety on in vitro antimalarial activity in chloroquine-sensitive and chloroquine-resistant strains of Plasmodium falciparum” (Bioorg Med Chem, 2007).
# pEC50: −log10 of the molar value.
# Legend:
# Plasmodium falciparum [1] = experiment: Antimalarial activity against chloroquine-sensitive Plasmodium falciparum 3D7; type: functional; conditions: read-out: ED50 (the source's name)
# Plasmodium falciparum [2] = experiment: Antimalarial activity against chloroquine-resistant Plasmodium falciparum K1; type: functional; conditions: read-out: ED50 (the source's name)
smiles,measurement,setting,value
CCN(CC)CCCC(C)Nc1ccnc2cc(Cl)ccc12 (configuration not stated) [CHLOROQUINE],pEC50,Plasmodium falciparum [1],8.07
same,pEC50,Plasmodium falciparum [2],6.54
